According to the NIST ThermoML archive (doi:10.1021/acs.jced.5b01000):
± gives the expanded uncertainty stated by the source.

Assays:
[1] = 99 kPa, Liquid; for viscosity: Capillary tube (Ostwald / Ubbelohde) method; for speed of sound: Frequency=3 MHz, Sing-around technique in a fixed-path interferometer; for mass density: Vibrating tube method
[2] = refractive index (Na D-line) (dimensionless); conditions: 99 kPa, Liquid, Standard Abbe refractometry
[3] = xn = mol fraction of the nth substance listed; conditions: 99 kPa, Liquid, x2 = 0; for viscosity: Capillary tube (Ostwald / Ubbelohde) method; for speed of sound: Frequency=3 MHz, Sing-around technique in a fixed-path interferometer; for mass density: Vibrating tube method
[4] = refractive index (Na D-line) (dimensionless); xn = mol fraction of the nth substance listed; conditions: 99 kPa, Liquid, Standard Abbe refractometry, x2 = 0

CC(=O)N(C)C [N,N-dimethylethanamide]
Conditions	mass density, [1] [kg/m3]	refractive index, [2]	speed of sound, [1] [m/s]	viscosity, [1] [mPa·s]
283.15 K	950.131 ± 0.21	1.44273 ± 0.00036	1516.8 ± 1.3	1.168 ± 0.014
298.15 K	936.289 ± 0.21	1.43579 ± 0.00036	1453.7 ± 1.3	0.9299 ± 0.011
313.15 K	922.429 ± 0.21	1.42901 ± 0.00036	1393.3 ± 1.3	0.7644 ± 0.0091

CCO [ethanol]
Conditions	mass density, [1] [kg/m3]	refractive index, [2]	speed of sound, [1] [m/s]	viscosity, [1] [mPa·s]
283.15 K	797.878 ± 0.19	1.36529 ± 0.00035	1194.5 ± 1.2	1.444 ± 0.017
298.15 K	785.054 ± 0.19	1.35913 ± 0.00035	1143.2 ± 1.2	1.079 ± 0.012
313.15 K	772.5 ± 0.19	1.35275 ± 0.00035	1092.4 ± 1.1	0.8235 ± 0.0096

CCO [ethanol] + CC(=O)N(C)C
Conditions	mass density, [3] [kg/m3]	refractive index, [4]	speed of sound, [3] [m/s]	viscosity, [3] [mPa·s]
283.15 K	797.878 ± 0.19	1.36529 ± 0.00035	1194.5 ± 1.2	1.444 ± 0.017
298.15 K	785.054 ± 0.19	1.35913 ± 0.00035	1143.2 ± 1.2	1.079 ± 0.012
313.15 K	772.5 ± 0.19	1.35275 ± 0.00035	1092.4 ± 1.1	0.8235 ± 0.0096

CO [methanol]
Conditions	mass density, [1] [kg/m3]	refractive index, [2]	speed of sound, [1] [m/s]	viscosity, [1] [mPa·s]
283.15 K	800.707 ± 0.19	1.33282 ± 0.00035	1152.7 ± 1.2	0.677 ± 0.0079
298.15 K	786.611 ± 0.19	1.32636 ± 0.00035	1104.2 ± 1.1	0.5449 ± 0.0064
313.15 K	772.31 ± 0.19	1.32013 ± 0.00035	1054.5 ± 1.1	0.4441 ± 0.0053

CO [methanol] + CC(=O)N(C)C
Conditions	mass density, [3] [kg/m3]	refractive index, [4]	speed of sound, [3] [m/s]	viscosity, [3] [mPa·s]
283.15 K	800.707 ± 0.19	1.33282 ± 0.00035	1152.7 ± 1.2	0.677 ± 0.0079
298.15 K	786.611 ± 0.19	1.32636 ± 0.00035	1104.2 ± 1.1	0.5449 ± 0.0064
313.15 K	772.31 ± 0.19	1.32013 ± 0.00035	1054.5 ± 1.1	0.4441 ± 0.0053
